pIC50: −log10 of the molar value.
Experiments:
Type in all cases: functional, cell-based
MGC-803 = assay: Antiproliferative activity against human MGC803 cells after 72 hrs by MTT assay; conditions: MGC-803, 72 h
HepG2 = assay: Antiproliferative activity against human HepG2 cells after 72 hrs by MTT assay; conditions: HepG2, 72 h
MCF7 = assay: Antiproliferative activity against human MCF7 cells after 72 hrs by MTT assay; conditions: MCF7, 72 h
A549 = assay: Antiproliferative activity against human A549 cells after 72 hrs by MTT assay; conditions: A549, 72 h
HCT-116 = assay: Antiproliferative activity against human HCT116 cells after 72 hrs by MTT assay; conditions: HCT-116, 72 h

Row | SMILES | pIC50 (MGC-803) | pIC50 (HepG2) | pIC50 (MCF7) | pIC50 (A549) | pIC50 (HCT-116)
1 | COc1ccccc1-n1cc(COC(=O)[C@]23CCC(C)(C)C[C@H]2C2=CC[C@@H]4[C@@]5(C)CC[C@H](O[C@@H]6O[C@H](CO[C@@H]7OC[C@H](O)[C@H](O)[C@@H]7O)[C@@H](O)[C@H](O)[C@H]6NC(C)=O)C(C)(C)[C@@H]5CC[C@@]4(C)[C@]2(C)CC3)nn1 | 4.28 | 4.30 | 4.27 | 4.22 | 4.25
2 | COc1ccc(-n2cc(COC(=O)[C@]34CCC(C)(C)C[C@H]3C3=CC[C@@H]5[C@@]6(C)CC[C@H](O[C@@H]7O[C@H](CO[C@@H]8OC[C@H](O)[C@H](O)[C@@H]8O)[C@@H](O)[C@H](O)[C@H]7NC(C)=O)C(C)(C)[C@@H]6CC[C@@]5(C)[C@]3(C)CC4)nn2)cc1 | 4.71 | 4.91 | 4.71 | 4.68 | 4.70
3 | CC(=O)N[C@H]1[C@H](O[C@H]2CC[C@]3(C)[C@H]4CC=C5[C@@H]6CC(C)(C)CC[C@]6(C(=O)OCc6cn(-c7ccc(C#N)cc7)nn6)CC[C@@]5(C)[C@]4(C)CC[C@H]3C2(C)C)O[C@H](CO[C@@H]2OC[C@H](O)[C@H](O)[C@@H]2O)[C@@H](O)[C@@H]1O | 4.74 | 4.76 | 4.80 | 4.65 | 5.05
4 | CC(=O)N[C@H]1[C@H](O[C@H]2CC[C@]3(C)[C@H]4CC=C5[C@@H]6CC(C)(C)CC[C@]6(C(=O)OCc6cn(-c7ccc(Cl)cc7Cl)nn6)CC[C@@]5(C)[C@]4(C)CC[C@H]3C2(C)C)O[C@H](CO[C@@H]2OC[C@H](O)[C@H](O)[C@@H]2O)[C@@H](O)[C@@H]1O | 4.50 | 4.49 | 4.54 | 4.44 | 4.41
5 | O=c1[nH]cc(F)c(=O)[nH]1 [FLUOROURACIL] | 4.51 | 4.32 | – | 4.15 | 4.42
6 | CC(=O)N[C@H]1[C@H](O[C@H]2CC[C@]3(C)[C@H]4CC=C5[C@@H]6CC(C)(C)CC[C@]6(C(=O)OCc6cn(-c7ccccc7)nn6)CC[C@@]5(C)[C@]4(C)CC[C@H]3C2(C)C)O[C@H](CO[C@@H]2OC[C@H](O)[C@H](O)[C@@H]2O)[C@@H](O)[C@@H]1O | 4.71 | 4.74 | 4.66 | 5.00 | 4.60
7 | CC(=O)N[C@H]1[C@H](O[C@H]2CC[C@]3(C)[C@H]4CC=C5[C@@H]6CC(C)(C)CC[C@]6(C(=O)OCc6cn(-c7ccc(C(F)(F)F)cc7)nn6)CC[C@@]5(C)[C@]4(C)CC[C@H]3C2(C)C)O[C@H](CO[C@@H]2OC[C@H](O)[C@H](O)[C@@H]2O)[C@@H](O)[C@@H]1O | 4.89 | 4.93 | 4.82 | 4.85 | 4.91
8 | CC(=O)N[C@H]1[C@H](O[C@H]2CC[C@]3(C)[C@H]4CC=C5[C@@H]6CC(C)(C)CC[C@]6(C(=O)OCc6cn(-c7cccc(C#N)c7)nn6)CC[C@@]5(C)[C@]4(C)CC[C@H]3C2(C)C)O[C@H](CO[C@@H]2OC[C@H](O)[C@H](O)[C@@H]2O)[C@@H](O)[C@@H]1O | 4.54 | 4.56 | 4.56 | 4.53 | 4.57
9 | CC(=O)N[C@H]1[C@H](O[C@H]2CC[C@]3(C)[C@H]4CC=C5[C@@H]6CC(C)(C)CC[C@]6(C(=O)OCc6cn(-c7ccccc7F)nn6)CC[C@@]5(C)[C@]4(C)CC[C@H]3C2(C)C)O[C@H](CO[C@@H]2OC[C@H](O)[C@H](O)[C@@H]2O)[C@@H](O)[C@@H]1O | 4.69 | 4.72 | 4.32 | 4.62 | 4.63
10 | CCOc1ccc(-n2cc(COC(=O)[C@]34CCC(C)(C)C[C@H]3C3=CC[C@@H]5[C@@]6(C)CC[C@H](O[C@@H]7O[C@H](CO[C@@H]8OC[C@H](O)[C@H](O)[C@@H]8O)[C@@H](O)[C@H](O)[C@H]7NC(C)=O)C(C)(C)[C@@H]6CC[C@@]5(C)[C@]3(C)CC4)nn2)cc1 | 4.67 | 4.87 | 4.61 | 4.71 | 4.78
11 | CC(=O)N[C@H]1[C@H](O[C@H]2CC[C@]3(C)[C@H]4CC=C5[C@@H]6CC(C)(C)CC[C@]6(C(=O)OCc6cn(-c7ccc(Cl)cc7)nn6)CC[C@@]5(C)[C@]4(C)CC[C@H]3C2(C)C)O[C@H](CO[C@@H]2OC[C@H](O)[C@H](O)[C@@H]2O)[C@@H](O)[C@@H]1O | 4.60 | 4.55 | 4.17 | 4.41 | 4.42
12 | CC(=O)N[C@H]1[C@H](O[C@H]2CC[C@]3(C)[C@H]4CC=C5[C@@H]6CC(C)(C)CC[C@]6(C(=O)OCc6cn(-c7ccc(Br)cc7)nn6)CC[C@@]5(C)[C@]4(C)CC[C@H]3C2(C)C)O[C@H](CO[C@@H]2OC[C@H](O)[C@H](O)[C@@H]2O)[C@@H](O)[C@@H]1O | 4.91 | 4.90 | 4.58 | 4.90 | 4.64
13 | CC(=O)N[C@H]1[C@H](O[C@H]2CC[C@]3(C)[C@H]4CC=C5[C@@H]6CC(C)(C)CC[C@]6(C(=O)OCc6cn(-c7cccc(C)c7)nn6)CC[C@@]5(C)[C@]4(C)CC[C@H]3C2(C)C)O[C@H](CO[C@@H]2OC[C@H](O)[C@H](O)[C@@H]2O)[C@@H](O)[C@@H]1O | 4.96 | 4.98 | 4.69 | 4.84 | 5.15
14 | CC(=O)N[C@H]1[C@H](O[C@H]2CC[C@]3(C)[C@H]4CC=C5[C@@H]6CC(C)(C)CC[C@]6(C(=O)OCc6cn(-c7ccccc7C)nn6)CC[C@@]5(C)[C@]4(C)CC[C@H]3C2(C)C)O[C@H](CO[C@@H]2OC[C@H](O)[C@H](O)[C@@H]2O)[C@@H](O)[C@@H]1O | 4.24 | 4.29 | 4.06 | 4.20 | 4.96
15 | CC(=O)N[C@H]1[C@H](O[C@H]2CC[C@]3(C)[C@H]4CC=C5[C@@H]6CC(C)(C)CC[C@]6(C(=O)OCc6cn(-c7cccc(F)c7)nn6)CC[C@@]5(C)[C@]4(C)CC[C@H]3C2(C)C)O[C@H](CO[C@@H]2OC[C@H](O)[C@H](O)[C@@H]2O)[C@@H](O)[C@@H]1O | 4.73 | 4.74 | 4.46 | 4.71 | 4.95
16 | CC(=O)N[C@H]1[C@H](O[C@H]2CC[C@]3(C)[C@H]4CC=C5[C@@H]6CC(C)(C)CC[C@]6(C(=O)OCc6cn(-c7ccccc7Br)nn6)CC[C@@]5(C)[C@]4(C)CC[C@H]3C2(C)C)O[C@H](CO[C@@H]2OC[C@H](O)[C@H](O)[C@@H]2O)[C@@H](O)[C@@H]1O | 4.26 | 4.21 | 4.17 | 4.19 | 4.88
17 | CC(=O)N[C@H]1[C@H](O[C@H]2CC[C@]3(C)[C@H]4CC=C5[C@@H]6CC(C)(C)CC[C@]6(C(=O)OCc6cn(-c7ccc(C(C)=O)cc7)nn6)CC[C@@]5(C)[C@]4(C)CC[C@H]3C2(C)C)O[C@H](CO[C@@H]2OC[C@H](O)[C@H](O)[C@@H]2O)[C@@H](O)[C@@H]1O | 4.77 | 4.94 | 4.83 | 4.85 | 4.89
18 | COC(=O)c1ccccc1-n1cc(COC(=O)[C@]23CCC(C)(C)C[C@H]2C2=CC[C@@H]4[C@@]5(C)CC[C@H](O[C@@H]6O[C@H](CO[C@@H]7OC[C@H](O)[C@H](O)[C@@H]7O)[C@@H](O)[C@H](O)[C@H]6NC(C)=O)C(C)(C)[C@@H]5CC[C@@]4(C)[C@]2(C)CC3)nn1 | 4.12 | 4.16 | 4.06 | 4.18 | 4.42
19 | CC(=O)N[C@H]1[C@H](O[C@H]2CC[C@]3(C)[C@H]4CC=C5[C@@H]6CC(C)(C)CC[C@]6(C(=O)OCc6cn(-c7cccc(Cl)c7)nn6)CC[C@@]5(C)[C@]4(C)CC[C@H]3C2(C)C)O[C@H](CO[C@@H]2OC[C@H](O)[C@H](O)[C@@H]2O)[C@@H](O)[C@@H]1O | 4.96 | 5.09 | 4.73 | 5.11 | 4.94
20 | CC(=O)N[C@H]1[C@H](O[C@H]2CC[C@]3(C)[C@H]4CC=C5[C@@H]6CC(C)(C)CC[C@]6(C(=O)OCc6cn(-c7cccc([N+](=O)[O-])c7)nn6)CC[C@@]5(C)[C@]4(C)CC[C@H]3C2(C)C)O[C@H](CO[C@@H]2OC[C@H](O)[C@H](O)[C@@H]2O)[C@@H](O)[C@@H]1O | 4.42 | 4.48 | 4.59 | 4.43 | 4.57
21 | CC(=O)N[C@H]1[C@H](O[C@H]2CC[C@]3(C)[C@H]4CC=C5[C@@H]6CC(C)(C)CC[C@]6(C(=O)OCc6cn(-c7ccc(C)cc7C)nn6)CC[C@@]5(C)[C@]4(C)CC[C@H]3C2(C)C)O[C@H](CO[C@@H]2OC[C@H](O)[C@H](O)[C@@H]2O)[C@@H](O)[C@@H]1O | 4.33 | 4.39 | 4.35 | 4.37 | 4.32
22 | COc1cccc(-n2cc(COC(=O)[C@]34CCC(C)(C)C[C@H]3C3=CC[C@@H]5[C@@]6(C)CC[C@H](O[C@@H]7O[C@H](CO[C@@H]8OC[C@H](O)[C@H](O)[C@@H]8O)[C@@H](O)[C@H](O)[C@H]7NC(C)=O)C(C)(C)[C@@H]6CC[C@@]5(C)[C@]3(C)CC4)nn2)c1 | 4.94 | 5.19 | 4.68 | 4.88 | 4.91
23 | CC(=O)N[C@H]1[C@H](O[C@H]2CC[C@]3(C)[C@H]4CC=C5[C@@H]6CC(C)(C)CC[C@]6(C(=O)OCc6cn(-c7ccccc7OC(F)(F)F)nn6)CC[C@@]5(C)[C@]4(C)CC[C@H]3C2(C)C)O[C@H](CO[C@@H]2OC[C@H](O)[C@H](O)[C@@H]2O)[C@@H](O)[C@@H]1O | 4.43 | 4.50 | 4.49 | 4.82 | 4.42
